Here are results for seven compounds from publication PMC5715404, “Design, Synthesis, and Evaluation of Ribose-Modified Anilinopyrimidine Derivatives as EGFR Tyrosine Kinase Inhibitors” (Frontiers in Chemistry, 2017).

Entries after “also recorded” stand apart in the source; their conditions may differ. Bounds are passed on as bounds.

The target of experiment [1] is T1, EGFR WT (Homo sapiens, UniProt P00533).
T1 construct: Kinases domain of EGFR WT and EGFR L858R/T790M were expressed; made in house; host or cells: baculovirus expression system (Bac-to-Bac)
T1 sequence (P00533 712-979 limits assumed): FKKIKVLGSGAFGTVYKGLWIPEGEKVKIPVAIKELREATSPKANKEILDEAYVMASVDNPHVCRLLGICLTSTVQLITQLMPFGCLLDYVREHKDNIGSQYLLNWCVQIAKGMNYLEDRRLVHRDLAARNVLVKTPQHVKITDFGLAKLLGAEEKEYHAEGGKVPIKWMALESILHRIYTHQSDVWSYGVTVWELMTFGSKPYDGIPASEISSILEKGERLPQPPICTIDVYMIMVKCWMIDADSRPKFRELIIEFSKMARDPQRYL
Kind of experiment: ELISA-based EGFR-TK kinase assay, EGFR WT. As to conditions: 10 μmol/L ATP solution, 37°C 1 h, mean ± SD of at least two determinations, read-out: EGFR tyrosine kinase IC50, EGFR. It is filed as biochemical. The protocol: (§1) Kinases domain of EGFR WT and EGFR L858R/T790M were expressed using the Bac-to-Bac™ baculo virus expression system (Invitrogen, Carlsbad, CA, USA) and purified in Ni-NTA columns (QIAGEN Inc., Valencia, CA, USA). The kinase activity was evaluated with enzyme-linked immunosorbent assay (ELISA). Briefly, 20 μg/mL Poly (Glu, Tyr) 4:1 (Sigma, St. Louis, MO) was precoated in 96-well ELISA plates as substrate. After adding 50 μL of 10 μmol/L ATP solution which was diluted in kinase reaction buffer (50 mM HEPES pH 7.4, 20 mM MgCl2, 0.1 mM MnCl2, 0.2 mM Na3VO4, 1 mM DTT), the plate was treated with 1 μL of indicated concentrations of compounds (dissolved in DMSO) per well. Experiments at each concentration were performed in duplicate. Reaction was initiated by adding tyrosine kinase diluted in kinase reaction buffer. After incubation at 37°C for 1 h, the wells were washed three times with phosphate buffered saline (PBS) containing 0.1% Tween 20 (T-PBS). One hundred microliters of anti-phosphotyrosine (PY99) antibody (1:1,000, Santa Cruz Biotechnology, Santa Cruz, CA) diluted in T-PBS containing 5 mg/mL BSA was added and the plate was incubated at 37°C for 30 min. After the plate was washed three times, 100 μL horseradish peroxidase-conjugated goat anti-mouse IgG (1:2,000, Calbiochem, SanDiego, CA) was added and the plate was incubated at 37°C for 30 min. The plate was washed, added with 100 μL citrate buffer (0.1 M, pH 5.5) containing 0.03% H2O2. Then 2 mg/mL o-phenylenediamine was added, and samples were incubated at room temperature until color emerged. The reaction was terminated immediately by adding 50 μL of 2 M H2SO4. Plate was read using a multiwell spectrophotometer (VERSAmax™, Molecular Devices, Sunnyvale, CA, USA) at 492 nm. The inhibitory rate (%) was calculated with the formula: [1 − (A492 treated/A492 control)] × 100%. IC50 values were calculated from the inhibitory curves.
A general note: In an ELISA, binding on a coated surface is turned into a signal by an enzyme label.

For experiment [2], the target named is T2, EGFR L858R/T790M (Homo sapiens, UniProt P00533, L858R/T790M).
T2 construct: Kinases domain of EGFR WT and EGFR L858R/T790M were expressed; made in house; host or cells: baculovirus expression system (Bac-to-Bac)
T2 sequence (P00533 712-979 T790M/L858R limits assumed): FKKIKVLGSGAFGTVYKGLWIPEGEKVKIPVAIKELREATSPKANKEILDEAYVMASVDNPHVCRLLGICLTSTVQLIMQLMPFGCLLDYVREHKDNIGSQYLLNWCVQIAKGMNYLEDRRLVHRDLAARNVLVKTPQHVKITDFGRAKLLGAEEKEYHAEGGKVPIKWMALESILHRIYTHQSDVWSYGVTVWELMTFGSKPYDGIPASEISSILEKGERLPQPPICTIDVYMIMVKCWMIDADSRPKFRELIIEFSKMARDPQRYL
Kind of experiment: ELISA-based EGFR-TK kinase assay, EGFR L858R/T790M. It counts as biochemical. As to conditions: for selectivity for EGFR L858R/T790M over WT EGFR (in words): EGFR L858R/T790M versus WT EGFR; for IC50 / inhibitory activity against EGFR tyrosine kinases (in words): ELISA; for IC50: 10 μmol/L ATP solution, 37°C 1 h, mean ± SD of at least two determinations, read-out: EGFR tyrosine kinase IC50, EGFR T790M/L858R; for inhibitory activity against EGFR tyrosine kinases (in words): EGFR WT and EGFR L858R/T790M. The method, then:
as §1

As to `C=CC(=O)N[C@H]1[C@H]2OC(C)(C)O[C@H]2O[C@@H]1COc1nc(Nc2ccc(N3CCN(C)CC3)cc2OC)ncc1Cl` [Compound 1a, 1,2-O-isopropylidene-3-N-acryloyl-3-deoxy-5-O-[5-chloro-2-N-(2-methoxy-4-(4-methylpiperazin-1-yl)phenyl)pyrimidin-4-yl]-α-D-ribofuranoside], the IC50 in experiment [1] was over 10 µM. In experiment [2], the “selectivity for EGFR L858R/T790M over WT EGFR (in words)” value was “potent and specific inhibitory activity; also recorded: good selectivity”; the IC50 is 0.62 µM.
`C=CC(=O)N[C@@H]1[C@@H](COc2nc(Nc3ccc(N4CCN(C)CC4)cc3OC)ncc2Cl)OC(O)[C@@H]1O` (stereo partly drawn) [Compound 1b, 3-N-acryloyl-3-deoxy-5-O-[5-chloro-2-N-(2-methoxy-4-(4-methylpiperazin-1-yl)phenyl)pyrimidin-4-yl]-D-ribofuranose]: the IC50 in experiment [1] is over 10 µM. In experiment [2], the “selectivity for EGFR L858R/T790M over WT EGFR (in words)” value is listed as “specific inhibitory activity” and the IC50 was determined as 2.64 µM.
As for `C=CC(=O)NC1O[C@H](COc2nc(Nc3ccc(N4CCN(C)CC4)cc3OC)ncc2Cl)[C@@H](O)[C@H]1O` (stereo partly drawn) [Compound 1c, 5-O-[5-chloro-2-N-(2-methoxy-4-(4-methylpiperazin-1-yl)phenyl)pyrimidin-4-yl]-D-ribofuranosyl acrylamide], the IC50 in experiment [1] was over 10 µM. In addition, in experiment [2], the “inhibitory activity against EGFR tyrosine kinases (in words)” value is reported as “no inhibitory activities; also recorded: no inhibitory activity” and the IC50 is over 10 µM.
For `C=CC(=O)N[C@H]1O[C@H](CO)[C@@H](Oc2nc(Nc3ccc(N4CCN(C)CC4)cc3OC)ncc2Cl)[C@H]1O[Si](C)(C)C(C)(C)C` [Compound 1d, 3-O-[5-chloro-2-N-(2-methoxy-4-(4-methylpiperazin-1-yl)phenyl)pyrimidin-4-yl]-2-O-tert-butyldimethylsilyl-α-D-ribofuranosyl acrylamide], the IC50 in experiment [1] was over 10 µM. Moreover, in experiment [2], the “inhibitory activity against EGFR tyrosine kinases (in words)” value is “no inhibitory activities; also recorded: no inhibitory activity” and the IC50 is over 10 µM.
With `COc1cc(N2CCN(C)CC2)ccc1Nc1ncc(Cl)c(OC[C@H]2O[C@@H](N=[N+]=[N-])[C@H](O)[C@@H]2O)n1` [Compound 24], the IC50 in experiment [1] and in experiment [2] was over 10 µM in each case.
On to `COc1cc(N2CCN(C)CC2)ccc1Nc1ncc(Cl)c(O[C@H]2[C@@H](O[Si](C)(C)C(C)(C)C)[C@H](N=[N+]=[N-])O[C@@H]2CO)n1` [Compound 25], for which the IC50 in experiment [1] and in experiment [2] was over 10 µM each time.
For the compound `COc1cc(N2CCN(C)CC2)ccc1Nc1ncc(Cl)c(OC[C@H]2OC(O)[C@H](O)[C@@H]2O)n1` (stereo partly drawn) [Compound 26], the IC50 in experiment [1] and in experiment [2] was over 10 µM each time.
